We go through 58 molecules from the METLIN SMRT retention time set (Domingo-Almenara et al. 2019).

A short description of this data set: gradient 5% acetonitrile 3 min, to 50% in 2 min, to 85% in 15 min, held 3 min, 100 µL/min. The conditions noted are these: column: Zorbax Extend-C18 2.1 x 50 mm; eluents: water / acetonitrile, 0.1% formic acid. The procedure, abridged:
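Using water and acetonitrile that each contained 0.1% formic acid, mixtures of ~100 pure standards were separated at 100 μL/min on a Zorbax Extend-C18 column (2.1 × 50 mm, 1.8 μm). The HPLC fed a quadrupole time-of-flight mass spectrometer working in positive and negative ionization mode, with dead and dwell volumes of 40 μL and 900 μL. Data were acquired over 3 months. Retention time was read from computationally picked adduct peaks after manual inspection of each.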
Turning to `O=C(NC1CCCC1)C1CCN(C(=O)C2Sc3ccccc3NC2=O)CC1` (stereo not drawn), the RP-LC retention time worked out at 697 s.
Molecule `Cc1cc(C)c(S(=O)(=O)Nc2cc(-c3cn4ccccc4n3)ccc2C)cc1C` gave an RP-LC retention time of 737 s.
For `CCC(Oc1ccc(=O)n(-c2ccc(F)cc2)n1)C(=O)Nc1cc(OC)c(OC)c(OC)c1` (stereo not drawn) the value was 592 s; for `CN(C)c1ccc(C(CNC(=O)CN2C(=O)c3ccccc3C2=O)N2CCCC2)cc1` (stereo not drawn), 559 s.
For `Cc1nc(CCNC(=O)NC2CCCCC2)no1` the value was 649 s.
For `Cc1ccc2c(=O)c(C(=O)N3CCCCC3)cn(CC(=O)Nc3ccccc3)c2n1` the value was 713 s; for `Cc1ccc(Nc2c(-c3ccc(N(C)C)cc3)nc3c(C)cccn23)cc1`, 805 s.
In turn, `Cc1c(C(=O)N2CCCC(C)C2)cnn1-c1ccc(-c2nc(C(C)(C)C)no2)cn1` (stereo not drawn) returned an RP-LC retention time of 1230 s.
Regarding `O=C(Nc1ccc(F)c(F)c1)C1CCCN(c2nc3ccsc3c(=O)n2Cc2ccc(F)cc2)C1` (stereo not drawn), the RP-LC retention time amounted to 1050 s.
The result for `O=c1n(Cc2nc(-c3ccc(OC(F)(F)F)cc3)no2)nc2ccc(-c3ccccc3)nn12` reads 1070 s.
For `Cc1cccc(N2CCN(C(=O)Cc3nnc(-c4sccc4C)o3)CC2)c1` the value was 921 s; for `O=C1NC(=O)c2cc(Nc3ccccc3)c(Nc3ccccc3)cc21`, 1040 s; for `Cc1ccc(N(C)S(=O)(=O)c2cc(-c3[nH]ncc3C(=O)N3CCCC3)oc2C)cc1`, 776 s.
The result for `COc1ccc(-c2noc(-c3c(SC)nn(CC(=O)Nc4ccccc4)c3N)n2)cc1` reads 934 s.
As to `O=C(NCC12CCC=C1N(CC1CC1)C(=O)CC2)Nc1cccc(F)c1` (stereo not drawn), the RP-LC retention time came out at 876 s.
The result for `CCOCCOC1CCN(S(=O)(=O)c2cccc(OC)c2)CC1` reads 881 s.
For `Cc1nn(-c2ccc(C(=O)NCc3cccs3)cc2)c2c1C(=O)CCC2` the value was 749 s; for `O=C(NCCC1=CCCCC1)C1CCN(Cc2cc3ccccc3n2Cc2ccccc2Cl)CC1`, 924 s; for `O=C(Cn1c(=O)c2nncn2c2ncccc21)NCc1ccc(Cl)cc1`, 671 s.
For `O=c1cc(CSc2nnc(-c3cccc(Cl)c3)o2)nc2sccn12` the value was 832 s; for `Cc1ccc(NC(=O)CN2C(=O)CCCc3cc(S(=O)(=O)N4CCCC4)ccc32)cc1Cl`, 943 s.
Molecule `CCCc1ccc(S(=O)(=O)N2CCC3(CC2)CN(C)CC3c2nnc(CC)o2)cc1` (stereo not drawn) displayed an RP-LC retention time of 692 s.
The result for `COc1cccc(C(=O)N2CCN(c3nc4ccccc4n(C)c3=O)CC2)c1` reads 877 s; that for `COc1cc(NC(=O)CCc2c(C)nn3cnnc3c2C)cc(OC)c1`, 662 s; that for `CC(C)(C)NC(=O)N1CCC(CNC(=O)c2cccs2)CC1`, 655 s.
The molecule `CCN1CCN(CCNC(=O)c2sc3cc(Cl)ccc3c2OC)CC1` gave an RP-LC retention time of 636 s.
For the molecule `COc1cc2c(Nc3ccc(NC(=O)c4ccccc4)cc3)ncnc2cc1OCCCN1CCOCC1`, the RP-LC retention time came out at 627 s.
The result for `O=C(c1cn2ccnc(-c3ccc(F)cc3)c2n1)N1CCN(c2ncccn2)CC1` reads 756 s.
The result for `Cc1ccc(-c2nc(Nc3ccccc3F)sc2C)cc1` reads 1340 s; that for `COc1ccccc1-c1nc2cnccn2c1NCCC(=O)NC1CCCCC1`, 673 s; that for `CCc1nnc2cc(N3CCN(C(=O)Nc4ccccc4Cl)CC3)cnn12`, 548 s.
The result for `CCCN1CCN(c2cc(C(=O)O)c3cc(NS(=O)(=O)c4ccccc4)ccc3n2)CC1` reads 1110 s; that for `O=C(Nc1ccccc1F)C1CCCN(S(=O)(=O)c2c[nH]c(C(=O)N3CCCC3)c2)C1` (stereo not drawn), 772 s; that for `Cc1nnc2cc(N3CCN(Cc4cn[nH]c4-c4ccccc4)CC3)cnn12`, 556 s.
As for `COc1ccccc1-c1csc(-c2nnn(-c3cccc(Cl)c3)c2N)n1`, the RP-LC retention time turned out to be 1210 s.
The result for `Cc1nc2cc(NC(=O)c3csc(Nc4ncccn4)n3)ccc2s1` reads 706 s; that for `O=C(c1ccc(Br)cc1)N1CCN(C(=O)c2cc(-c3cccnc3)n[nH]2)CC1`, 626 s; that for `CCCn1cc(CCNS(=O)(=O)c2ccc(Cl)s2)c2cccnc21`, 899 s.
The result for `CCOC(=O)c1ccccc1NC(=O)Cn1c(=O)c(CCC(=O)NC2CCCC2)nc2ccccc21` reads 1130 s; that for `Cc1nn(C2CCS(=O)(=O)C2)c2nc(-c3ccco3)cc(C(=O)NCC3CCCO3)c12` (stereo not drawn), 683 s; that for `Cc1ccc(Nc2c(-c3ccc(N(C)C)cc3)nc3ccc(Cl)cn23)cc1`, 818 s.
For `Cn1nccc1C(=O)Nc1sccc1-c1nc2ccccc2s1` the value was 1280 s; for `Cc1sc(-c2ccn[nH]2)cc1NC(=O)c1cccc(N(C)C)c1`, 995 s; for `CSc1cccc(NC(=O)NC2CCN(c3cc(C)cc(C)c3)C2=O)c1` (stereo not drawn), 929 s.
In turn, `CN(CC(=O)N1CCN(c2ccc(Cl)cc2)CC1)S(=O)(=O)c1ccc2c(c1)CCCC(=O)N2` yielded an RP-LC retention time of 828 s.
The result for `COc1ccc2c(c1)c(CN1CCC(C(=O)NCCc3ccco3)CC1)cn2C` reads 671 s; that for `COCCn1c(C(CNc2cccc(C)c2)CC(=O)O)nc2ccccc21` (stereo not drawn), 620 s; that for `CCN1CCn2cc(S(=O)(=O)Nc3cccc(C)c3C)cc2C1=O`, 729 s.
For `CN1C(=O)[C@]2(CO)SSC1(Cc1cn([C@]34C[C@@]56SS[C@@](CO)(C(=O)N5[C@H]3Nc3ccccc34)N(C)C6=O)c3ccccc13)C(=O)N2C` the value was 898 s; for `C=CCOC(=O)/C=C\C(=O)NC(N)=O`, 659 s; for `Cc1ccc(C)c(NC(=O)CN2C(=O)C3CCCCN3c3ccc(S(=O)(=O)N(C)C)cc32)c1` (stereo not drawn), 955 s.
For `Cc1ccc(S(=O)(=O)N2CCC3(CC2)NCCN=C3NCc2ccccc2C)c(C)c1` the value was 788 s; for `CCN1CCN(C(=O)C2CCN(S(=O)(=O)c3ccc4c(c3)NC(=O)CO4)CC2)CC1`, 664 s.
Consider `O=C(c1nc(Cn2cnc3ccccc3c2=O)no1)N1CCN(Cc2ccc3c(c2)OCO3)CC1`, for which the RP-LC retention time is 691 s.
Molecule `Cc1ccc(-c2ncc(NC(=O)C3CCC3)cn2)cc1` had an RP-LC retention time of 941 s.
On to `CCCn1c(=O)sc2cc(S(=O)(=O)N3CCC(C(=O)NCc4cccs4)CC3)ccc21`, for which the RP-LC retention time turned out to be 880 s.
For `CCCCN(C)S(=O)(=O)c1cc(-c2nnc(C3CCCC3)o2)co1` the value was 1060 s; for `COc1ccc(NC(=O)Cn2cccc2-c2nc(-c3ccc4c(c3)OCO4)no2)c(OC)c1`, 1040 s.
